Entries after “also recorded” stand apart in the source; their conditions may differ. One block for each compound: values may come before it.
Legend:
[1] = Tissue distribution of Velcade, ARI-3996 and ARI-2727D in mice; format: in vivo
Procedure: ARI-3996 is cleaved to ARI-2727D in and around tumors, thus facilitating the buildup of ARI-2727D in tumors.
Velcade®'s high toxicity would also result from the accumulation of the drug in the organs at the expense of accumulation in the tumor. […] Thus ARI-2727D is being selectively delivered to solid tumors via FAP activation of ARI-3996.
Finally, FAP activation was verified as the mode by which ARI-2727D tumor accumulation was taking place. In FIG. 24, ARI-2727D concentrations at 1 hour post-injection were compared with ARI-2727D concentrations 1 hour after injection of the prodrug form (ARI-3996).

[2] = system: FAP; assay: Activation of ARI-3996 to release ARI-2727 in FAP knockout versus FAP+ mice; format: in vivo; settings: FAP+ mice treated with ARI-3996
Procedure: Mouse models may over-report systemic toxicity of ARI-3996 compared with that possible in cancer patients. This was further verified by treatment of FAP knockout mice with ARI-3996. In knockout mice (FIG. 21), no activation of ARI-3996 to release ARI-2727 took place, whereas in FAP+ mice a concentration of the released warhead ARI-2727 of 150 ng/mL was reached.

[3] = system: normal cells; assay: Cytotoxicity toward normal cells; format: cell-based
[4] = system: MM cell lines; assay: Cytotoxicity toward Multiple Myeloma cell lines; format: cell-based; settings: various MM cell lines
[5] = system: FAP-transfected HEK tumor xenograft; assay: Anticancer activity in FAP-transfected HEK tumor xenograft, 40-day study; format: in vivo, mice
Text: Having determined the levels of FAP expression in the HEK xenograft model, the anticancer activity of ARI-3996 was next evaluated in a 40-day study. […] It also suffers conformation-dependent inactivation over time.

[6] = system: solid tumors; assay: Cytotoxicity toward solid tumors; format: cell-based
[7] = molecular target: DPPII (Homo sapiens, UniProt Q9UHL4); assay: In vitro cleavage of fluorogenic substrate ARI-3144 (AMC fluorescence); format: biochemical; settings: fluorescence of released AMC
Text: (§1) The D-alanine at P2 of the fluorogenic substrate, N-(Quinoline-4-carbonyl)-D-Ala-Pro-AMC [AMC=7-amino-4-methylcoumarin] (ARI-3144), confers selectivity for FAP so that it is cleaved to release fluorescent AMC by recombinant FAP but not by other DPP-IV-like proteases (FIG. 3). […] FAP is reportedly not expressed constitutively in healthy tissue with the exception of endometrium, although FAP proteolytic activity is detectable in plasma. […] The ability to measure FAP proteolytic activity in tumors is required to evaluate the usefulness of ARI-3996 as a chemotherapeutic agent. Hitherto, FAP activity has not been quantified in human or mouse tumors. […] We will use the assay to select a mouse tumor model for investigation of ARI-3996's activity in which the increase in tumor-associated FAP activity relative to plasma is equivalent to that in human epithelial cancer.

[8] = molecular target: DPP8 (Homo sapiens, UniProt Q6V1X1); assay: as above; format: biochemical; settings: fluorescence of released AMC
Text: (§2) Cleavage was monitored by measuring fluorescence of the AMC leaving group (excitation, 355 nm; emission, 460 nm).
as §1

[9] = molecular target: T1, recombinant FAP (Homo sapiens, UniProt Q12884); assay: as above; format: biochemical; settings: fluorescence of released AMC
T1 sequence (Q12884 1-760): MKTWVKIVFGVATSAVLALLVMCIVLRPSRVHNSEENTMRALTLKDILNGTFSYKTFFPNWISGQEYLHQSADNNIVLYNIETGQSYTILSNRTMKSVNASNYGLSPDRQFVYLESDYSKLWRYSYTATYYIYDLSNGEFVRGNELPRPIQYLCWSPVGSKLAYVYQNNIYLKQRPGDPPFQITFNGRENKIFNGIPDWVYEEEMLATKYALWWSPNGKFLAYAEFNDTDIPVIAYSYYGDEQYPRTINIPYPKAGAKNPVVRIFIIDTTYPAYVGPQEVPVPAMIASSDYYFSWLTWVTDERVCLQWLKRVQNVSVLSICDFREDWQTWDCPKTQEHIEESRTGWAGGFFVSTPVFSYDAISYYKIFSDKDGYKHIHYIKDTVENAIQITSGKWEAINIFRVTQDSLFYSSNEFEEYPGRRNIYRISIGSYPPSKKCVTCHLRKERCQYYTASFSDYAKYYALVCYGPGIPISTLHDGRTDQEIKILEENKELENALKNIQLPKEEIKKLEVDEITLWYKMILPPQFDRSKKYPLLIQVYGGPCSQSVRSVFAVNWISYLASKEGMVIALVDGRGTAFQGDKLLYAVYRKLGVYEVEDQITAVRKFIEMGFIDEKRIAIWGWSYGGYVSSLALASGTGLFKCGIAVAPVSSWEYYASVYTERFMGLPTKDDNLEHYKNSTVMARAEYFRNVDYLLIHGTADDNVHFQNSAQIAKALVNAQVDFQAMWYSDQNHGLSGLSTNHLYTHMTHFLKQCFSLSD
Text: as §2, §1

[10] = molecular target: DPPIV (Homo sapiens, UniProt P27487); assay: as above; format: biochemical; settings: fluorescence of released AMC
Text: as §2, §1

[11] = molecular target: T2, PREP (Homo sapiens, UniProt P48147); assay: as above; format: biochemical; settings: fluorescence of released AMC
T2 sequence (P48147 1-710): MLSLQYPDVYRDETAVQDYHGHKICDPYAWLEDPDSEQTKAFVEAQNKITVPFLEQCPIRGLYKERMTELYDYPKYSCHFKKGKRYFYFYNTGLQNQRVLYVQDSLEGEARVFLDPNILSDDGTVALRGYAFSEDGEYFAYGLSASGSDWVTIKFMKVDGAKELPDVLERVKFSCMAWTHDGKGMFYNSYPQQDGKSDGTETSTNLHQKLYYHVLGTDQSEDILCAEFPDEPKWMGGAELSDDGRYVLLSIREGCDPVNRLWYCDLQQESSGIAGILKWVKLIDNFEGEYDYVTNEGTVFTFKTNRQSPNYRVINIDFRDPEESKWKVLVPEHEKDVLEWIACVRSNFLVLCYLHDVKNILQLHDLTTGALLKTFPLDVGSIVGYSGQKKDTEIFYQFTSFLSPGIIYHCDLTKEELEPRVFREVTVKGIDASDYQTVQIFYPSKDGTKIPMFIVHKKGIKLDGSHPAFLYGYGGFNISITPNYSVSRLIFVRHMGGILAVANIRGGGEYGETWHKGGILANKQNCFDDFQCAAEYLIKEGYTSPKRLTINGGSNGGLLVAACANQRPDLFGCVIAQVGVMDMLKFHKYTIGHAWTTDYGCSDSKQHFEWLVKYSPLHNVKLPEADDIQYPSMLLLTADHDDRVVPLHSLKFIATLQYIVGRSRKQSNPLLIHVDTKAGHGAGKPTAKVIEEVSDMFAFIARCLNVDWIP
Text: as §2, §1

[12] = molecular target: DPP9 (Homo sapiens, UniProt Q86TI2); assay: as above; format: biochemical; settings: fluorescence of released AMC
Text: as §2, §1

[13] = mice bearing PC3 prostate tumors; cited from earlier work
[14] = Maximum tolerated dose in mice; format: in vivo
[15] = system: HPAF-II carcinoma xenografts; settings: HPAF-II xenograft; ARI-3996 100 mg/kg i.p., bortezomib 1 mg/kg
Procedure: ARI-3996 and bortezomib were administered twice weekly (day (D)1/D4 schedule), and ARI-3996 was also given from day 1 to day 5 for 5 consecutive days (QD×5 schedule).
One-way ANOVA with Dunnett's post test for test versus vehicle (P<0.0001).
ARI-3996 b.i.d. s.c. and gemcitabine once per day i.p. were administered twice weekly. Mean±SEM.

[16] = system: U266 tumor xenografts; assay: Anticancer effects in U266 tumor-bearing mice (ELISA and bioluminescence); format: in vivo; settings: ARI-3996 50 mg/kg, Velcade 0.5 mg/kg, twice a week for 2 weeks
Procedure: ARI-3996 consistently outperformed Velcade® in a mouse MM model. Mice bearing U266 tumor xenografts (2 female, 2 male) were treated with either the vehicle, ARI-3996, or Velcade® twice a week (day 1 and day 4) for 2 weeks. […] The inhibition of the tumor was evaluated using ELISA (μg/mL) and bioluminescence.

DPP8, sequence (Q6V1X1 whole entry, species assumed): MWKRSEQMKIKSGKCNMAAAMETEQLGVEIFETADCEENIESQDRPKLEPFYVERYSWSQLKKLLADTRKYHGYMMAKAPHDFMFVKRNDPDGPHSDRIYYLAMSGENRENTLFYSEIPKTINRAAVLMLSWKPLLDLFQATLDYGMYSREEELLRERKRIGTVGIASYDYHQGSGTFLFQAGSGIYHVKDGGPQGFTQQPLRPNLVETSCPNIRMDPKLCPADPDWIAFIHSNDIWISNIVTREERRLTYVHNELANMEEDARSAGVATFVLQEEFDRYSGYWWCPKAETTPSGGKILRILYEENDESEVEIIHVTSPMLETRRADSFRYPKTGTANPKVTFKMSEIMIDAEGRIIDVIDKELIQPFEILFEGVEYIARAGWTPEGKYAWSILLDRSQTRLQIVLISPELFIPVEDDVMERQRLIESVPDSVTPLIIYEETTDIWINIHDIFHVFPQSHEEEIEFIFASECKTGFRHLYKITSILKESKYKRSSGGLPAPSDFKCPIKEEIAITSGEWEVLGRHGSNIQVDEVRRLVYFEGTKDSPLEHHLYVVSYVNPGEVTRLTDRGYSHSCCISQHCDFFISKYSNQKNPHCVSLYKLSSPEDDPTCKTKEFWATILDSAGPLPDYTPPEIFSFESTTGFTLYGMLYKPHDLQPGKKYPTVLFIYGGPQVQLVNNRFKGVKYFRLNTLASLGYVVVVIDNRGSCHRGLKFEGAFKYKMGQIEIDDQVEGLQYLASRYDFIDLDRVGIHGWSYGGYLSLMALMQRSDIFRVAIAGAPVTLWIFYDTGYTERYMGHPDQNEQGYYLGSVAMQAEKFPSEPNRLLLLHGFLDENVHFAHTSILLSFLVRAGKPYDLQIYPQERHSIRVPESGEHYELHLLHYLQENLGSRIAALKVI
DPPIV, sequence (P27487 whole entry, species assumed): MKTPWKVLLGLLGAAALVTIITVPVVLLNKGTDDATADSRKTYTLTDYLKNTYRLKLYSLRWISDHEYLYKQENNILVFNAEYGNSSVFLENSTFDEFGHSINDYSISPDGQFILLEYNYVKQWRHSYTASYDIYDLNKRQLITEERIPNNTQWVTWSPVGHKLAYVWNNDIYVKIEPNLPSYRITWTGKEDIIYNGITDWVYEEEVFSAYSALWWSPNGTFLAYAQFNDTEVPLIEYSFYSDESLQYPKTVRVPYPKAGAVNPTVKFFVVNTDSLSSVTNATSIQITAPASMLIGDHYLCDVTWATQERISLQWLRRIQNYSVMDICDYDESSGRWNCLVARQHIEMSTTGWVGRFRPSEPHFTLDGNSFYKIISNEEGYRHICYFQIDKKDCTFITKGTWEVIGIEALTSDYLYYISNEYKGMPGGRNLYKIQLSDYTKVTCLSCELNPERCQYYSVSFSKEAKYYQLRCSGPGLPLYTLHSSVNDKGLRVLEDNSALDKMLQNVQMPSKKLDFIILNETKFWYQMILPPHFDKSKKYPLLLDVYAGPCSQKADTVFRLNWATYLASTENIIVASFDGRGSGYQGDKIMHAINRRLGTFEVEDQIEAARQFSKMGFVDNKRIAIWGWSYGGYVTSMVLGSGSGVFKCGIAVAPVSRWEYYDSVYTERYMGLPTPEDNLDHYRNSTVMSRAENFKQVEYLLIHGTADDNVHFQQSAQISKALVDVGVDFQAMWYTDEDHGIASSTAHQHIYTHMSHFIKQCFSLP
DPP9, sequence (Q86TI2 whole entry, species assumed): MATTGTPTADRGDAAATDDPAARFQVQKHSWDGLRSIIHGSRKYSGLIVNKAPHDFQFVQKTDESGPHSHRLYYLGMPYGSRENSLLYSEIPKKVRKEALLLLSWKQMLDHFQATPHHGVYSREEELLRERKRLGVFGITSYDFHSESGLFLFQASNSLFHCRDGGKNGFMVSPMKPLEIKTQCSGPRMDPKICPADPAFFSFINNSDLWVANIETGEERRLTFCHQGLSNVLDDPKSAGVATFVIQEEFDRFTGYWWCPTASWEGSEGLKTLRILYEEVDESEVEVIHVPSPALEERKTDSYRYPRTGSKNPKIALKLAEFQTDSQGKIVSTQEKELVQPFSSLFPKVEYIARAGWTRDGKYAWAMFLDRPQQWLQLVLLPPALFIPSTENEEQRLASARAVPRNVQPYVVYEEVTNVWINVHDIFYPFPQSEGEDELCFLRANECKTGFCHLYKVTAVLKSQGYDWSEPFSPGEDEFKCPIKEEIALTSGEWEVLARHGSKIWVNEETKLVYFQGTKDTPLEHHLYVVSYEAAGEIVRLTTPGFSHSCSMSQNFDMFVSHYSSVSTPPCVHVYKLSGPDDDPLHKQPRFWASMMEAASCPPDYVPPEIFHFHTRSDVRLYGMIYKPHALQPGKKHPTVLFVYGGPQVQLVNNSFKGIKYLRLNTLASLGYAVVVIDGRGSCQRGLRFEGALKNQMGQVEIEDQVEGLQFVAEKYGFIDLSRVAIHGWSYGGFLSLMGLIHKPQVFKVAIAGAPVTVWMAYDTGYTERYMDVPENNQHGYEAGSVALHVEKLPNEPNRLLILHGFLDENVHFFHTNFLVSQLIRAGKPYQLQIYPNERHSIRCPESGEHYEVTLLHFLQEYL

Concentration of the released warhead ARI-2727 [2]: 150 ng/mL
SMILES: CC(C)CC(NC(=O)C(N)Cc1cccc2ccccc12)B(O)O (centres unmarked) [ARI-2727D, Ala(1-Nal)-boroLeu]
Tissue distribution of ARI-2727D after injection of prodrug ([1]; 1 hour after injection of ARI-3996): highest concentration of ARI-2727D was found in the tumor | Tissue distribution of ARI-2727D after direct injection ([1]; 1 hour post-injection of ARI-2727D): highest concentration of the drug accumulating in the kidneys and lung | Tissue distribution of ARI-2727D formed from ARI-3996 ([1]; mice given ARI-3996): much higher relative concentrations in the tumor | Cytotoxicity [3]: slightly lower toxicity | Cytotoxicity [4]: extremely high potency | Tumor growth inhibition [5]: potent tumor inhibition | Cytotoxicity [6]: much lower

Cleavage by DPPII [7]: no cleavage | Cleavage by DPP8 [8]: no cleavage | Cleavage by FAP [9]: excellent substrate for FAP | Cleavage by DPPIV [10]: no cleavage | Cleavage by PREP [11]: no cleavage | Cleavage by DPP9 [12]: no cleavage
SMILES: Cc1cc(=O)oc2cc(NC(=O)[C@@H]3CCCN3C(=O)[C@@H](C)NC(=O)c3ccnc4ccccc34)ccc12 [ARI-3144, N-(Quinoline-4-carbonyl)-D-Ala-Pro-AMC]

SMILES: CC(C)C[C@H](NC(=O)[C@H](Cc1ccccc1)NC(=O)c1cnccn1)B(O)O [^14C-bortezomib]
Healthy organ exposure relative to tumor exposure [13]: ≤ 9 fold

SMILES: CC(C)C[C@H](NC(=O)[C@H](Cc1ccccc1)NC(=O)c1cnccn1)B(O)O [bortezomib, reference compound]
Tissue distribution of the administered drug ([1]; mouse, in vivo): much higher concentrations in the heart, lung, kidney, liver, spleen, and lung than in the tumor | MTD (maximum tolerated dose) [14]: 1 mg/kg | Cytotoxicity [3]: slightly lower toxicity | Antitumor effect at MTD [15]: refractory; also recorded: lacks significant antitumor activity | Cytotoxicity [4]: extremely high potency | Deaths / survival [16]: 1 | Tumor growth inhibition [5]: hardly slowed the growth of the tumors | Cytotoxicity [6]: much lower

Reference: patent publication US12214047B2, “FAP-activated proteasome inhibitors for treating solid tumors” (Trustees of Tufts College, priority 2011, dated 2025)
